Test results taken from US9695155B2, “Herbicidal substituted pyrimidinyloxy benzene compounds” (E. I. DU PONT DE NEMOURS AND COMPANY, priority 2013, dated 2017).

Tests used:
deadnettle = experiment: Test D preemergence; assay type: in vivo, Lamium amplexicaule
Description: (§1) Seeds of plant species selected from bluegrass (annual bluegrass, Poa annua), blackgrass (Alopecurus myosuroides), canarygrass (littleseed canarygrass, Phalaris minor), chickweed (common chickweed, Stellaria media), galium (catchweed bedstraw, Galium aparine), bromegrass, downy (downy bromegrass, Bromus tectorum), field poppy (Papaver rhoeas), field violet (Viola arvensis), green foxtail (Setaria viridis), deadnettle (henbit deadnettle, Lamium amplexicaule), Italian ryegrass (Lolium multiflorum), kochia (Kochia scoparia), lambsquarters (Chenopodium album), oilseed rape (Brassica napus), pigweed (Amaranthus retroflexus), chamomile (scentless chamomile, Matricaria inodora), Russian thistle (Salsola kali), speedwell (bird's-eye speedwell, Veronica persica), spring barley (Hordeum vulgare), spring wheat (Triticum aestivum), wild buckwheat (Polygonum convolvulus), wild mustard (Sinapis arvensis), wild oat (Avena fatua), wild radish (Raphanus raphanistrum), windgrass (Apera spica-venti), winter barley (Hordeum vulgare), and winter wheat (Triticum aestivum) were planted into a silt loam soil and treated preemergence with test chemicals formulated in a non-phytotoxic solvent mixture which included a surfactant.
(§2) At the same time, these species were planted in pots containing Redi-Earth® planting medium (Scotts Company, 14111 Scottslawn Road, Marysville, Ohio 43041) comprising spaghnum peat moss, vermiculite, wetting agent and starter nutrients and treated with postemergence applications of the test chemicals formulated in the same manner. Plants ranged in height from 2 to 18 cm (1- to 4-leaf stage). Treated plants and controls were maintained in a controlled growth environment for 7 to 21 days after which time all species were compared to controls and visually evaluated. Plant response ratings, summarized in Table D, are based on a scale of 0 to 100 where 0 is no effect and 100 is complete control. A dash (-) response means no test result.

wild buckwheat = experiment: Test D preemergence; assay type: in vivo, Polygonum convolvulus
Description: as §1, §2

galium = experiment: Test D postemergence; assay type: in vivo, Galium aparine
Description: as §1, §2

chickweed = experiment: Test D preemergence; assay type: in vivo, Stellaria media
Description: as §1, §2

winter barley = experiment: Test D preemergence; assay type: in vivo, Hordeum vulgare
Description: as §1, §2

spring barley = experiment: Test D preemergence; assay type: in vivo, Hordeum vulgare
Description: as §1, §2

field poppy = experiment: Test D preemergence; assay type: in vivo, Papaver rhoeas
Description: as §1, §2

[1] = 16 g ai/ha, scale 0 (no effect) to 100 (complete control)

Fc1cccc(Oc2ncc(Cl)cn2)c1-n1cc(C(F)F)nn1 [Compound 141, 5-chloro-2-[2-[4-(difluoromethyl)-1H-1,2,3-triazol-1-yl]-3-fluorophenoxy]pyrimidine]
pest or weed control at 16 g/ha (deadnettle; Lamium amplexicaule, pre-emergence, 16 g ai/ha, scale 0 (no effect) to 100 (complete control), read-out: Plant response rating, Deadnettle): 90%
pest or weed control at 31 g/ha (deadnettle; Lamium amplexicaule, pre-emergence, 31 g ai/ha, scale 0-100, read-out: Plant response rating, Deadnettle): 100%
pest or weed control at 62 g/ha (deadnettle; Lamium amplexicaule, pre-emergence, 62 g ai/ha, scale 0-100, read-out: Plant response rating, Deadnettle): 98%
pest or weed control at 125 g/ha (deadnettle; Lamium amplexicaule, pre-emergence, 125 g ai/ha, scale 0-100, read-out: Plant response rating, Deadnettle): 100%
pest or weed control at 16 g/ha (wild buckwheat; Fallopia convolvulus, pre-emergence, 16 g ai/ha, scale 0 (no effect) to 100 (complete control), read-out: Plant response rating, Buckwheat, Wild): 100%
pest or weed control at 31 g/ha (wild buckwheat; Fallopia convolvulus, pre-emergence, 31 g ai/ha, scale 0-100, read-out: Plant response rating, Buckwheat, Wild): 100%
pest or weed control at 62 g/ha (wild buckwheat; Fallopia convolvulus, pre-emergence, 62 g ai/ha, scale 0-100, read-out: Plant response rating, Buckwheat, Wild): 100%
pest or weed control at 125 g/ha (wild buckwheat; Fallopia convolvulus, pre-emergence, 125 g ai/ha, scale 0-100, read-out: Plant response rating, Buckwheat, Wild): 100%
pest or weed control at 16 g/ha (galium; Galium, post-emergence, 16 g ai/ha, scale 0-100, read-out: Plant response rating, Galium): 95%
pest or weed control at 31 g/ha (galium; Galium, post-emergence, 31 g ai/ha, scale 0 to 100 (0 no effect, 100 complete control), read-out: Plant response rating, Galium): 98%
pest or weed control at 62 g/ha (galium; Galium, post-emergence, 62 g ai/ha, scale 0 to 100 (0 no effect, 100 complete control), read-out: Plant response rating, Galium): 98%
pest or weed control at 125 g/ha (galium; Galium, post-emergence, 125 g ai/ha, scale 0 to 100 (0 no effect, 100 complete control), read-out: Plant response rating, Galium): 98%
pest or weed control at 16 g/ha (chickweed; Stellaria media, pre-emergence, 16 g ai/ha, scale 0 (no effect) to 100 (complete control), read-out: Plant response rating, Chickweed): 100%
pest or weed control at 31 g/ha (chickweed; Stellaria media, pre-emergence, 31 g ai/ha, scale 0-100, read-out: Plant response rating, Chickweed): 100%
pest or weed control at 62 g/ha (chickweed; Stellaria media, pre-emergence, 62 g ai/ha, scale 0-100, read-out: Plant response rating, Chickweed): 100%
pest or weed control at 125 g/ha (chickweed; Stellaria media, pre-emergence, 125 g ai/ha, scale 0-100, read-out: Plant response rating, Chickweed): 100%
plant injury at 16 g/ha (winter barley; Hordeum vulgare, pre-emergence, 16 g ai/ha, scale 0 (no effect) to 100 (complete control), read-out: Plant response rating, Barley, Winter): 15%
plant injury at 31 g/ha (winter barley; Hordeum vulgare, pre-emergence, 31 g ai/ha, scale 0-100, read-out: Plant response rating, Barley, Winter): 35%
plant injury at 62 g/ha (winter barley; Hordeum vulgare, pre-emergence, 62 g ai/ha, scale 0-100, read-out: Plant response rating, Barley, Winter): 65%
plant injury at 125 g/ha (winter barley; Hordeum vulgare, pre-emergence, 125 g ai/ha, scale 0-100, read-out: Plant response rating, Barley, Winter): 90%
plant injury at 16 g/ha (spring barley; Hordeum vulgare, pre-emergence, 16 g ai/ha, scale 0 (no effect) to 100 (complete control), read-out: Plant response rating, Barley, Spring): 15%
plant injury at 31 g/ha (spring barley; Hordeum vulgare, pre-emergence, 31 g ai/ha, scale 0-100, read-out: Plant response rating, Barley, Spring): 20%
plant injury at 62 g/ha (spring barley; Hordeum vulgare, pre-emergence, 62 g ai/ha, scale 0-100, read-out: Plant response rating, Barley, Spring): 65%
plant injury at 125 g/ha (spring barley; Hordeum vulgare, pre-emergence, 125 g ai/ha, scale 0-100, read-out: Plant response rating, Barley, Spring): 90%
pest or weed control at 16 g/ha (field poppy; Papaver rhoeas, pre-emergence, 16 g ai/ha, scale 0 (no effect) to 100 (complete control), read-out: Plant response rating, Field Poppy): 98%
pest or weed control at 31 g/ha (field poppy; Papaver rhoeas, pre-emergence, 31 g ai/ha, scale 0-100, read-out: Plant response rating, Field Poppy): 100%
pest or weed control at 62 g/ha (field poppy; Papaver rhoeas, pre-emergence, 62 g ai/ha, scale 0-100, read-out: Plant response rating, Field Poppy): 100%
pest or weed control at 125 g/ha (field poppy; Papaver rhoeas, pre-emergence, 125 g ai/ha, scale 0-100, read-out: Plant response rating, Field Poppy): 100%

FCc1cccc(Oc2ncc(Cl)cn2)c1-n1cc(I)cn1 [Compound 245]
Plant response rating, Deadnettle (deadnettle; [1]): 0
Plant response rating, Deadnettle (deadnettle; 31 g ai/ha, scale 0-100): 0
Plant response rating, Deadnettle (deadnettle; 62 g ai/ha, scale 0-100): 0
Plant response rating, Deadnettle (deadnettle; 125 g ai/ha, scale 0-100): 15
Plant response rating, Buckwheat, Wild (wild buckwheat; [1]): 25
Plant response rating, Buckwheat, Wild (wild buckwheat; 31 g ai/ha, scale 0-100): 0
Plant response rating, Buckwheat, Wild (wild buckwheat; 62 g ai/ha, scale 0-100): 25
Plant response rating, Buckwheat, Wild (wild buckwheat; 125 g ai/ha, scale 0-100): 35
Plant response rating, Galium (galium; 16 g ai/ha, scale 0-100): 70
Plant response rating, Galium (galium; 31 g ai/ha, scale 0 to 100 (0 no effect, 100 complete control)): 75
Plant response rating, Galium (galium; 62 g ai/ha, scale 0 to 100 (0 no effect, 100 complete control)): 90
Plant response rating, Galium (galium; 125 g ai/ha, scale 0 to 100 (0 no effect, 100 complete control)): 98
Plant response rating, Chickweed (chickweed; [1]): 55
Plant response rating, Chickweed (chickweed; 31 g ai/ha, scale 0-100): 85
Plant response rating, Chickweed (chickweed; 62 g ai/ha, scale 0-100): 100
Plant response rating, Chickweed (chickweed; 125 g ai/ha, scale 0-100): 100
Plant response rating, Barley, Winter (winter barley; [1]): 0
Plant response rating, Barley, Winter (winter barley; 31 g ai/ha, scale 0-100): 35
Plant response rating, Barley, Winter (winter barley; 62 g ai/ha, scale 0-100): 25
Plant response rating, Barley, Winter (winter barley; 125 g ai/ha, scale 0-100): 40
Plant response rating, Barley, Spring (spring barley; [1]): 0
Plant response rating, Barley, Spring (spring barley; 31 g ai/ha, scale 0-100): 5
Plant response rating, Barley, Spring (spring barley; 62 g ai/ha, scale 0-100): 15
Plant response rating, Barley, Spring (spring barley; 125 g ai/ha, scale 0-100): 35
Plant response rating, Field Poppy (field poppy; [1]): 100
Plant response rating, Field Poppy (field poppy; 31 g ai/ha, scale 0-100): 100
Plant response rating, Field Poppy (field poppy; 62 g ai/ha, scale 0-100): 100
Plant response rating, Field Poppy (field poppy; 125 g ai/ha, scale 0-100): 100
